Measured values from US11767310B2, “Nicotinamide RIPK1 inhibitors” (AbbVie Inc., priority 2021, dated 2023).
Where two headings read alike, the source gives them in different places.

Tests used:
Assay in all cases: Kinase binding screen
Settings in all cases: read-out: Percent Control at 100 nM Compound Concentration
PDGFRB = PDGFRB (Homo sapiens (Human), UniProt P09619)
ERBB4 = ERBB4 (Homo sapiens (Human), UniProt Q15303)
BTK = BTK (Homo sapiens (Human), UniProt Q06187)
VPS34 = VPS34 (Homo sapiens (Human), UniProt Q8NEB9)
Sequence of VPS34 (Q8NEB9 whole entry): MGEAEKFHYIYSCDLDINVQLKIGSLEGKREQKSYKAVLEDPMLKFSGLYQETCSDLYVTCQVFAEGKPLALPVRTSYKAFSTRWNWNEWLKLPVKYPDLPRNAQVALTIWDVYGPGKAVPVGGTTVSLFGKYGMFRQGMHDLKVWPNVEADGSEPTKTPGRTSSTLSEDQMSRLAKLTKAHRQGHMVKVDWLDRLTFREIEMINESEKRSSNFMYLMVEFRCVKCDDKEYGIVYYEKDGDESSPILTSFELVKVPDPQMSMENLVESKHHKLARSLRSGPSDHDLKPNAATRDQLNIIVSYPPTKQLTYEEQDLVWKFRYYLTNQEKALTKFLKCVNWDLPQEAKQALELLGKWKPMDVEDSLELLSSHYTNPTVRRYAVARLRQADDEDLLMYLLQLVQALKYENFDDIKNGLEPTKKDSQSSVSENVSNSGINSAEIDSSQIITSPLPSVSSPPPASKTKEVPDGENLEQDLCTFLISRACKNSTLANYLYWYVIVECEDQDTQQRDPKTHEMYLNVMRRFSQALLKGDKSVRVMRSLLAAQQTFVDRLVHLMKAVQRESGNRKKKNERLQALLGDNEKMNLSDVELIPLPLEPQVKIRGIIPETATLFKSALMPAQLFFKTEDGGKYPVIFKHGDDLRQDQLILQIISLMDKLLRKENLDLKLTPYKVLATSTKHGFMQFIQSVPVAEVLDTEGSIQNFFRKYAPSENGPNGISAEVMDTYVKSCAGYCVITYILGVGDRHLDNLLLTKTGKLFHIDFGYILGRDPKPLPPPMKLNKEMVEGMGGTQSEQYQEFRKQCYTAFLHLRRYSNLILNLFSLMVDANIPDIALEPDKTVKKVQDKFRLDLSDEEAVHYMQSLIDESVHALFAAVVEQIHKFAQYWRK

GRK2 = GRK2 (Homo sapiens (Human), UniProt P25098)
WNK1 = WNK1 (Homo sapiens (Human), UniProt Q9H4A3)
FGFR3 = FGFR3 (Homo sapiens (Human), UniProt P22607)
Sequence of FGFR3 (P22607 23-806): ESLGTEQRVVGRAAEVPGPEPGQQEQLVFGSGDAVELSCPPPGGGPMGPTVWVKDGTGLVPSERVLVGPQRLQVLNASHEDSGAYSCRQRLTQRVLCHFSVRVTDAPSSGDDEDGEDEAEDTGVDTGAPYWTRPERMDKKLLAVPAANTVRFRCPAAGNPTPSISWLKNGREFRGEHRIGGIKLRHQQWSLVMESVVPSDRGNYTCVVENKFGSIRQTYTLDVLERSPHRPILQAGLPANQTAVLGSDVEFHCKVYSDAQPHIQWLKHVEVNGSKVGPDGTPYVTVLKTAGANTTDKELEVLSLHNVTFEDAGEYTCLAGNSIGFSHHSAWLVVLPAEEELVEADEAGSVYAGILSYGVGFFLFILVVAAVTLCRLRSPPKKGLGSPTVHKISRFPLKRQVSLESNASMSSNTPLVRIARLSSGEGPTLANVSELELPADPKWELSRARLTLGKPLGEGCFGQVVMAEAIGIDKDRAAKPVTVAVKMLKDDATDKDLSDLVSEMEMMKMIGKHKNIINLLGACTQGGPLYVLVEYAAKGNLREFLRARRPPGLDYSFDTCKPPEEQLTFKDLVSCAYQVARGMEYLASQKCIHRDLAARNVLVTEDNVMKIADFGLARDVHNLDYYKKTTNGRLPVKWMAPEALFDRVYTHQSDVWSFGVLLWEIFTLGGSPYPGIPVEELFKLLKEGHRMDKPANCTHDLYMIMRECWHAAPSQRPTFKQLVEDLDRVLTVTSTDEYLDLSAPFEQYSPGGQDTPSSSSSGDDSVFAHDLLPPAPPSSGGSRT

DDR1 = DDR1 (Homo sapiens (Human), UniProt Q08345)
CSNK1E = CSNK1E (Homo sapiens (Human), UniProt P49674)
Sequence of CSNK1E (P49674 whole entry): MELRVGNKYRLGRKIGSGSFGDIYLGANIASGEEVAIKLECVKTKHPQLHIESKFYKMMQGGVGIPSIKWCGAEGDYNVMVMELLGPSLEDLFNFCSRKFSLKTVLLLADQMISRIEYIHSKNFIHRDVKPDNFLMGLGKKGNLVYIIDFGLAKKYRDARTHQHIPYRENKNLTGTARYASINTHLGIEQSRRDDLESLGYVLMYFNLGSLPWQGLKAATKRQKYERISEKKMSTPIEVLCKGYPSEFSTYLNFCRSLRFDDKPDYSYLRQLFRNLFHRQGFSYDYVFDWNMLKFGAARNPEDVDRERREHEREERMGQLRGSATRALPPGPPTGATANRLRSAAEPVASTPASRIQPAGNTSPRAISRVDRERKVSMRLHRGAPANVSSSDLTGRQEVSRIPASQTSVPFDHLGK

MAST1 = MAST1 (Homo sapiens (Human), UniProt Q9Y2H9)
CDKL5 = CDKL5 (Homo sapiens (Human), UniProt O76039)
FGFR4 = FGFR4 (Homo sapiens (Human), UniProt P22455)
Sequence of FGFR4 (P22455 22-802): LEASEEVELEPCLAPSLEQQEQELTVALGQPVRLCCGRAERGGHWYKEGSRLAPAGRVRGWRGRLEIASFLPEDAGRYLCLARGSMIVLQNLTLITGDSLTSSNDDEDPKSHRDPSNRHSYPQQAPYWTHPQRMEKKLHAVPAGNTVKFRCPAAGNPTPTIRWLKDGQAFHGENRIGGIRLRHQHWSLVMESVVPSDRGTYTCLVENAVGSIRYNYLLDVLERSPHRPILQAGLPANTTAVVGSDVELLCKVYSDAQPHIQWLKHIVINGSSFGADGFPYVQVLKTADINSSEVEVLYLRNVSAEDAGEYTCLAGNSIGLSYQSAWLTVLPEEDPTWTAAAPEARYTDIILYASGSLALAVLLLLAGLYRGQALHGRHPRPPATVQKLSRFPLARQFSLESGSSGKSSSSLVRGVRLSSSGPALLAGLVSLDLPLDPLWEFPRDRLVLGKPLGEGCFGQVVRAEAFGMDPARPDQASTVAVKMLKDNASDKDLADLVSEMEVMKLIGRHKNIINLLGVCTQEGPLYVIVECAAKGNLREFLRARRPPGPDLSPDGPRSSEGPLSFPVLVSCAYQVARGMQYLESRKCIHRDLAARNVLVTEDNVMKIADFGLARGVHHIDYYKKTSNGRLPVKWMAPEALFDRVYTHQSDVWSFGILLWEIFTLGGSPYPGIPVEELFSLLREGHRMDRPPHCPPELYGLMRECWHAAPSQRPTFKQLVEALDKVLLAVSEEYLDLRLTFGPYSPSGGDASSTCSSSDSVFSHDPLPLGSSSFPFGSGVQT

ARK5 = ARK5 (Homo sapiens (Human), UniProt O60285)
Sequence of ARK5 (O60285 whole entry): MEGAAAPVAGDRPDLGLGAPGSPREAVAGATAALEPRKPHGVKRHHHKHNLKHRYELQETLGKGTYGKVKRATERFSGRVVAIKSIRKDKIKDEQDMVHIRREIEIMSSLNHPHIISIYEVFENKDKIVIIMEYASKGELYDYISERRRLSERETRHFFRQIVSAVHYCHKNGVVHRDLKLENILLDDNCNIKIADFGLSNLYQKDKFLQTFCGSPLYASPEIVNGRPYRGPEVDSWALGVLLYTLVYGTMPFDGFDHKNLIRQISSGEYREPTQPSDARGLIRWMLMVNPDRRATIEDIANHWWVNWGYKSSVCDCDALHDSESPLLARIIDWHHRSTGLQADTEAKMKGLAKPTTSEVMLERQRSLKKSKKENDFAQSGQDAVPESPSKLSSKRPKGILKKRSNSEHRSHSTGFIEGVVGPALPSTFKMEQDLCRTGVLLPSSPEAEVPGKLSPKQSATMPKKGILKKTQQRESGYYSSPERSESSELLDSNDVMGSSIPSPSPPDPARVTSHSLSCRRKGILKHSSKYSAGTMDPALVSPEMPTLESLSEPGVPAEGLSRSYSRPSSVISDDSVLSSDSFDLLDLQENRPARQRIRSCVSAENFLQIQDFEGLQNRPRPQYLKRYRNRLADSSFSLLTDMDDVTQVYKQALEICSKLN

NEK3 = NEK3 (Homo sapiens (Human), UniProt P51956)
EPHA6 = EPHA6 (Homo sapiens (Human), UniProt Q9UF33)
DYRK1A = DYRK1A (Homo sapiens (Human), UniProt Q13627)
TAOK3 = TAOK3 (Homo sapiens (Human), UniProt Q9H2K8)
PRKCQ = PRKCQ (Homo sapiens (Human), UniProt Q04759)
Sequence of PRKCQ (Q04759 whole entry): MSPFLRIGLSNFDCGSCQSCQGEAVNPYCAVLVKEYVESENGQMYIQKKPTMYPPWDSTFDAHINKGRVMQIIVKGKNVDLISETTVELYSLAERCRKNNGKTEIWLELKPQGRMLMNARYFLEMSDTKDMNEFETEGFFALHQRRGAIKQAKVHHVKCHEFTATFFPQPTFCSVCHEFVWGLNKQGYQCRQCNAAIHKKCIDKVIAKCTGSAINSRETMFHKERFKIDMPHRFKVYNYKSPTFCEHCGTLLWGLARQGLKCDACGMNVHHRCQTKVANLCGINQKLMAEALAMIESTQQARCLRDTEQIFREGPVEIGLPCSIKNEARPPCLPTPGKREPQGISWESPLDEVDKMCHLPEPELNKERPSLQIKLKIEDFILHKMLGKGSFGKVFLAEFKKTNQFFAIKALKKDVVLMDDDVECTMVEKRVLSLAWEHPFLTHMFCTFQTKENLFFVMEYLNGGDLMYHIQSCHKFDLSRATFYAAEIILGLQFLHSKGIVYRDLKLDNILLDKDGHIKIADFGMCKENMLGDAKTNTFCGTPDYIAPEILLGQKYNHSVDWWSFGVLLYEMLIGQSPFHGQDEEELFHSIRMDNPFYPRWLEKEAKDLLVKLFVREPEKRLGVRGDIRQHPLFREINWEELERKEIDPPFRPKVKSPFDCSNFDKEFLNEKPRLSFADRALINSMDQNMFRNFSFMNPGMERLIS

[1] = molecular target: RSK3(Kin.Dom.2-C-terminal) (Homo sapiens (Human), UniProt Q15349)
RIOK1 = RIOK1 (Homo sapiens (Human), UniProt Q9BRS2)
Sequence of RIOK1 (Q9BRS2 whole entry): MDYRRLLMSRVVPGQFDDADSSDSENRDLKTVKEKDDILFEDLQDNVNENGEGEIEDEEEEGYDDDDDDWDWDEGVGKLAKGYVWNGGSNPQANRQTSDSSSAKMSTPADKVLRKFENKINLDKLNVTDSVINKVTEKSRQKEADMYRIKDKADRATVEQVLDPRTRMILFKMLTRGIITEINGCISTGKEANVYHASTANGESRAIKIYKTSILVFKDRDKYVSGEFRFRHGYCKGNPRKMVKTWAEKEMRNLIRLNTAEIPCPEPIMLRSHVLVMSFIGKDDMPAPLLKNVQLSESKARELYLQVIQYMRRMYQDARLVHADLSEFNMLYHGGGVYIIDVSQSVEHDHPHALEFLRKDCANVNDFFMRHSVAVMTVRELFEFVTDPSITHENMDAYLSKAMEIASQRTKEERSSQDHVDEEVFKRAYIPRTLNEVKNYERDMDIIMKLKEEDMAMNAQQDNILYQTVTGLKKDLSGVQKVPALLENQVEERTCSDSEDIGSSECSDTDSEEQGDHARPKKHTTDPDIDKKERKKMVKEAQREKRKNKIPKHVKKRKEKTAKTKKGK

AMPK-alpha1 = AMPK-alpha1 (Homo sapiens (Human), UniProt Q13131)
BLK = BLK (Homo sapiens (Human), UniProt P51451)
TLK2 = TLK2 (Homo sapiens (Human), UniProt Q86UE8)
p38-gamma = p38-gamma (Homo sapiens (Human), UniProt P53778)
TESK1 = TESK1 (Homo sapiens (Human), UniProt Q15569)
GCN2(Kin.Dom.2,S808G) = GCN2(Kin.Dom.2,S808G) (Homo sapiens (Human), UniProt Q9P2K8, S808G)
EPHB4 = EPHB4 (Homo sapiens (Human), UniProt P54760)
TRKA = TRKA (Homo sapiens (Human), UniProt P04629)
MET(M1250T) = MET(M1250T) (Homo sapiens (Human), UniProt P08581, M1250T)

## CN(C[C@@H](O)Cc1ccccc1)C(=O)c1cncc(C#Cc2cnn(C(F)F)c2)c1 [Example 2, (S)-5-((1-(difluoromethyl)-1H-pyrazol-4-yl)ethynyl)-N-(2-hydroxy-3-phenylpropyl)-N-methylnicotinamide]
PDGFRB; PDGFRB
  remaining activity at 0.1 µM: 100%
ERBB4; ERBB4
  remaining activity at 0.1 µM: 94%
BTK; BTK
  remaining activity at 0.1 µM: 100%
VPS34; VPS34
  remaining activity at 0.1 µM: 87%
GRK2; GRK2
  remaining activity at 0.1 µM: 96%
WNK1; WNK1
  remaining activity at 0.1 µM: 93%
FGFR3; FGFR3
  remaining activity at 0.1 µM: 100%
DDR1; DDR1
  remaining activity at 0.1 µM: 100%
CSNK1E; CSNK1E
  remaining activity at 0.1 µM: 67%
MAST1; MAST1
  remaining activity at 0.1 µM: 100%
CDKL5; CDKL5
  remaining activity at 0.1 µM: 93%
FGFR4; FGFR4
  remaining activity at 0.1 µM: 100%
ARK5; ARK5
  remaining activity at 0.1 µM: 100%
NEK3; NEK3
  remaining activity at 0.1 µM: 96%
EPHA6; EPHA6
  remaining activity at 0.1 µM: 100%
DYRK1A; DYRK1A
  remaining activity at 0.1 µM: 90%
TAOK3; TAOK3
  remaining activity at 0.1 µM: 92%
PRKCQ; PRKCQ
  remaining activity at 0.1 µM: 94%
[1]; RSK3(Kin.Dom.2-C-terminal)
  remaining activity at 0.1 µM: 100%
RIOK1; RIOK1
  remaining activity at 0.1 µM: 100%
AMPK-alpha1; AMPK-alpha1
  remaining activity at 0.1 µM: 100%
BLK; BLK
  remaining activity at 0.1 µM: 85%
TLK2; TLK2
  remaining activity at 0.1 µM: 100%
p38-gamma; p38-gamma
  remaining activity at 0.1 µM: 100%
TESK1; TESK1
  remaining activity at 0.1 µM: 100%
GCN2(Kin.Dom.2,S808G); GCN2(Kin.Dom.2,S808G)
  remaining activity at 0.1 µM: 95%
EPHB4; EPHB4
  remaining activity at 0.1 µM: 100%
TRKA; TRKA
  remaining activity at 0.1 µM: 100%
MET(M1250T); MET(M1250T)
  remaining activity at 0.1 µM: 100%

## CN(C[C@H](Cc1ccccc1)OP(=O)(O)O)C(=O)c1cncc(C#Cc2cnn(C(F)F)c2)c1 [Example 19, (S)-1-(5-((1-(difluoromethyl)-1H-pyrazol-4-yl)ethynyl)-N-methylnicotinamido)-3-phenylpropan-2-yl dihydrogen phosphate]
PDGFRB
  remaining activity at 0.1 µM: 100%
ERBB4
  remaining activity at 0.1 µM: 93%
BTK
  remaining activity at 0.1 µM: 96%
VPS34
  remaining activity at 0.1 µM: 90%
GRK2
  remaining activity at 0.1 µM: 79%
WNK1
  remaining activity at 0.1 µM: 94%
FGFR3
  remaining activity at 0.1 µM: 100%
DDR1
  remaining activity at 0.1 µM: 100%
CSNK1E
  remaining activity at 0.1 µM: 74%
MAST1
  remaining activity at 0.1 µM: 97%
CDKL5
  remaining activity at 0.1 µM: 86%
FGFR4
  remaining activity at 0.1 µM: 100%
ARK5
  remaining activity at 0.1 µM: 100%
NEK3
  remaining activity at 0.1 µM: 96%
EPHA6
  remaining activity at 0.1 µM: 100%
DYRK1A
  remaining activity at 0.1 µM: 85%
TAOK3
  remaining activity at 0.1 µM: 85%
PRKCQ
  remaining activity at 0.1 µM: 98%
[1]
  remaining activity at 0.1 µM: 100%
RIOK1
  remaining activity at 0.1 µM: 100%
AMPK-alpha1
  remaining activity at 0.1 µM: 100%
BLK
  remaining activity at 0.1 µM: 96%
TLK2
  remaining activity at 0.1 µM: 100%
p38-gamma
  remaining activity at 0.1 µM: 88%
TESK1
  remaining activity at 0.1 µM: 100%
GCN2(Kin.Dom.2,S808G)
  remaining activity at 0.1 µM: 97%
EPHB4
  remaining activity at 0.1 µM: 100%
TRKA
  remaining activity at 0.1 µM: 81%
MET(M1250T)
  remaining activity at 0.1 µM: 100%
